Data as given in PMC5811606, “Characterization of ^111In-labeled Glucose-Dependent Insulinotropic Polypeptide as a Radiotracer for Neuroendocrine Tumors” (Scientific Reports, 2018).

Molecular target: T1, GIPR on the islets of Langerhans (Mus musculus, UniProt Q0P543)
T1 construct: Islets of Langerhans were isolated from donor C3H mice by collagenase digestion; from tissue; host or cells: isolated islets of Langerhans from C3H mice
T1 sequence (Q0P543 19-460): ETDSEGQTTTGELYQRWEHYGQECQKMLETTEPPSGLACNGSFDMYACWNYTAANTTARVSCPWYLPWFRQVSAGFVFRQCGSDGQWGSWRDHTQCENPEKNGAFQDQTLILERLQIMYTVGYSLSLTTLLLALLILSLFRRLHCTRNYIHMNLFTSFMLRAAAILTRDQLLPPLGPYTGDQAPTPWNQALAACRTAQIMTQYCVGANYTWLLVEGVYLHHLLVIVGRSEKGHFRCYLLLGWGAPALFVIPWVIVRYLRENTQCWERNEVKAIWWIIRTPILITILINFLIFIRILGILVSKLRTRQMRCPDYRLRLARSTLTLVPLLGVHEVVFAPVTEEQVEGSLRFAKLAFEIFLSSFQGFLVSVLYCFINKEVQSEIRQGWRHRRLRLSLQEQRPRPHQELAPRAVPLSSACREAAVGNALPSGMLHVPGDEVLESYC
Assay: In vitro binding to isolated islets
Conditions: islets of C3H mice, 24 hours, 37 °C, + 25 µg unlabeled GIP1-42, mean ± SD
Experimental: Islets of Langerhans were isolated from donor C3H mice by collagenase digestion as follows. Mice were euthanized by CO2/O2 suffocation and 2 ml of ice cold RPMI 1640 containing 1 mg/ml collagenase type V (Sigma Aldrich) were infused via the pancreatic duct in situ. After dissection, the perfused pancreata were collected in serum free medium containing collagenase and kept on ice until digestion. Pancreata were digested for 12 min at 37 °C. Digestion was stopped by adding RPMI medium containing 10% FCS, 2 mM L-glutamine, 100 U/ml penicillin and 100 U/ml streptomycin (complete RPMI). After washing, digested pancreata were passed through a mesh. Afterwards, islets were purified on a discontinuous Ficoll gradient (densities: 1.108; 1.096; 1.037; Cellgro by Mediatech Inc, Manassas, VA, USA) by centrifugation at 625 × g for 16 min without brake. Islets were collected from the intersection of the second and third layer and remaining Ficoll was removed by washing with complete RPMI. Isolated islets were cultured overnight in complete RPMI medium in a humidified atmosphere containing 5% CO2 at 37 °C.
After overnight recovery from the isolation procedure, islets from the donor C3H mice were collected, counted and resuspended in complete RPMI. […] After incubation, islets were washed extensively with binding buffer and islet-associated radioactivity was measured in a well type gamma counter.

## CC[C@H](C)[C@H](NC(=O)[C@H](CO)NC(=O)[C@H](Cc1ccc(O)cc1)NC(=O)[C@H](CC(=O)O)NC(=O)[C@H](CO)NC(=O)[C@@H](NC(=O)[C@H](Cc1ccccc1)NC(=O)[C@@H](NC(=O)CNC(=O)[C@H](CCC(=O)O)NC(=O)[C@H](C)NC(=O)[C@H](Cc1ccc(O)cc1)NC(C)=O)[C@@H](C)O)[C@@H](C)CC)C(=O)N[C@@H](C)C(=O)N[C@@H](CCSC)C(=O)N[C@@H](CC(=O)O)C(=O)N[C@@H](CCCCN)C(=O)N[C@H](C(=O)N[C@@H](Cc1c[nH]cn1)C(=O)N[C@@H](CCC(N)=O)C(=O)N[C@@H](CCC(N)=O)C(=O)N[C@@H](CC(=O)O)C(=O)N[C@@H](Cc1ccccc1)C(=O)N[C@H](C(=O)N[C@@H](CC(N)=O)C(=O)N[C@@H](Cc1c[nH]c2ccccc12)C(=O)N[C@@H](CC(C)C)C(=O)N[C@@H](CC(C)C)C(=O)N[C@@H](C)C(=O)N[C@@H](CCC(N)=O)C(=O)N[C@@H](CCCCN)C(=O)NCC(=O)N[C@@H](CCCCN)C(=O)N[C@@H](CCCCN)C(=O)N[C@@H](CC(N)=O)C(=O)N[C@@H](CC(=O)O)C(=O)N[C@@H](Cc1c[nH]c2ccccc12)C(=O)N[C@@H](CCCCNC(=O)CN(CCN(CCN(CC(=O)O)CC(=O)O)CC(=O)O)CC(=O)O)C(=O)N[C@@H](Cc1c[nH]cn1)C(=O)N[C@@H](CC(N)=O)C(=O)N[C@H](C(=O)N[C@H](C(=O)N[C@@H](CCC(N)=O)C(=O)O)[C@@H](C)O)[C@@H](C)CC)C(C)C)[C@@H](C)CC [[Lys^37(^111In-DTPA)]N-acetyl-GIP1-42, metal not drawn]
  tracer bound to 200 isolated islets with excess unlabeled GIP1-42: 0.03 ± 0.01 fmol
